Test results: ChEMBL document CHEMBL1201862, “PubChem BioAssay data set” (2004)
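A five-concentration, 48-hour dose response in 96-well plates underlies each endpoint, interpolated linearly between surrounding concentrations. GI50: concentration for 50% inhibition of growth.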 Active and inactive are the calls of the source. Cut-off read from the data, not from the text of the source: active = GI50 up to about 1.1 µM and inactive = higher.

How the values were obtained:
Experiment in all cases: NCI-60 cell line screen, 48 h
786-0 = tested on: 786-0
A549 = tested on: A549
DU-145 = tested on: DU-145
HCT-116 = tested on: HCT-116
HOP-92 = tested on: HOP-92
M14 = tested on: M14
MDA-N = tested on: MDA-N
MOLT-4 = tested on: MOLT-4
NCI-H460 = tested on: NCI-H460
NCI/ADR-RES = tested on: NCI/ADR-RES
OVCAR-3 = tested on: OVCAR-3
OVCAR-8 = tested on: OVCAR-8
RPMI-8226 = tested on: RPMI-8226
SK-OV-3 = tested on: SK-OV-3
SNB-19 = tested on: SNB-19
SNB-75 = tested on: SNB-75
SW-620 = tested on: SW-620
TK-10 = tested on: TK-10
UO-31 = tested on: UO-31

Row | Compound | GI50 (786-0) | GI50 (A549) | GI50 (DU-145) | GI50 (HCT-116) | GI50 (HOP-92) | GI50 (M14) | GI50 (MDA-N) | GI50 (MOLT-4) | GI50 (NCI-H460) | GI50 (NCI/ADR-RES) | GI50 (OVCAR-3) | GI50 (OVCAR-8) | GI50 (RPMI-8226) | GI50 (SK-OV-3) | GI50 (SNB-19) | GI50 (SNB-75) | GI50 (SW-620) | GI50 (TK-10) | GI50 (UO-31)
1 | S=C1c2cc(Cl)ccc2N=C(NC2CCCC2)C2CSCN12 (stereo not drawn) | > 100 µM (inactive) | > 84.9 µM (inactive) | > 100 µM (inactive) | > 74.5 µM (inactive) | 60.5 µM (inactive) | > 78 µM (inactive) | 97.3 µM (inactive) | > 57.7 µM (inactive) | > 100 µM (inactive) | 98.6 µM (inactive) | > 68.7 µM (inactive) | > 100 µM (inactive) | > 63.8 µM (inactive) | > 100 µM (inactive) | > 100 µM (inactive) | 99.3 µM (inactive) | > 85.3 µM (inactive) | > 100 µM (inactive) | > 100 µM (inactive)
2 | O=C(NC12CC3CC(CC(C3)C1)C2)n1cnc2c(Cl)ncnc21 | > 100 µM (inactive) | 38.4 µM (inactive) | 24.3 µM (inactive) | 37.8 µM (inactive) | 34.2 µM (inactive) | 23.1 µM (inactive) | 21.6 µM (inactive) | 15 µM (inactive) | 28 µM (inactive) | > 100 µM (inactive) | 22.7 µM (inactive) | 26 µM (inactive) | 40.7 µM (inactive) | 34.3 µM (inactive) | > 100 µM (inactive) | 27.4 µM (inactive) | 37 µM (inactive) | > 100 µM (inactive) | > 100 µM (inactive)
3 | C=CCN1C(=O)/C(=C/c2cccs2)N=C1SC/C=C/C | 36.8 µM (inactive) | 40.7 µM (inactive) | 63.1 µM (inactive) | 26.3 µM (inactive) | 24.6 µM (inactive) | 69.5 µM (inactive) | 24.7 µM (inactive) | 14.7 µM (inactive) | 38.3 µM (inactive) | 39.1 µM (inactive) | 44.8 µM (inactive) | 37.6 µM (inactive) | 16.9 µM (inactive) | 95.3 µM (inactive) | 80.9 µM (inactive) | 17.3 µM (inactive) | 35.6 µM (inactive) | 92 µM (inactive) | 44.2 µM (inactive)
4 | Nc1nc(=O)c(/N=N/c2ccccc2)c(C(=O)O)[nH]1 | 71.6 µM (inactive) | 84.5 µM (inactive) | 98.6 µM (inactive) | 61.8 µM (inactive) | > 100 µM (inactive) | > 100 µM (inactive) | > 100 µM (inactive) | 46.3 µM (inactive) | 45.7 µM (inactive) | > 100 µM (inactive) | 98.4 µM (inactive) | > 100 µM (inactive) | 63.8 µM (inactive) | > 100 µM (inactive) | > 100 µM (inactive) | > 100 µM (inactive) | > 100 µM (inactive) | > 100 µM (inactive) | > 100 µM (inactive)
5 | C=C1C(=O)O[C@@H]2C[C@@H](C)[C@@H]3[C@@H](OC4OC(COC(C)=O)C(O)C(O)C4O)CC(=O)[C@@]3(C)C[C@H]12 (stereo partly drawn) | 0.396 µM (active) | 8.67 µM (inactive) | 8.38 µM (inactive) | 0.659 µM (active) | 0.902 µM (active) | 1.43 µM (inactive) | 1.66 µM (inactive) | 1.94 µM (inactive) | 14.3 µM (inactive) | 0.855 µM (active) | 1.1 µM (active) | 1.36 µM (inactive) | 1.39 µM (inactive) | 19.1 µM (inactive) | 20.2 µM (inactive) | 7.31 µM (inactive) | 0.574 µM (active) | 1.68 µM (inactive) | 1.83 µM (inactive)
6 | C[C@H]1[C@H]2[C@H](C[C@@]3(C)C4=CC[C@H]5C(C)(C)[C@@H](OC6OCC(O)C(O)C6O)CC[C@@]56C[C@@]46CC[C@]23C)O[C@@]2(O)[C@@H]1OC(C)(C)[C@H]2O (stereo partly drawn) | 1.06 µM (active) | 1.4 µM (inactive) | 1.02 µM (active) | 1.45 µM (inactive) | 1.09 µM (active) | 3.83 µM (inactive) | 2.28 µM (inactive) | 3.96 µM (inactive) | 2.12 µM (inactive) | 2.67 µM (inactive) | 3.01 µM (inactive) | 0.879 µM (active) | 1.15 µM (inactive) | 1.74 µM (inactive) | 2.49 µM (inactive) | 1.62 µM (inactive) | 1.13 µM (inactive) | 1.17 µM (inactive) | 3.57 µM (inactive)
7 | COc1ccc2c(c1)/C(=C\c1c(Cl)[nH]c3cc(C)c(OC)cc13)C(=O)N2 | 1.19 µM (inactive) | 1.19 µM (inactive) | 1.66 µM (inactive) | 0.979 µM (active) | 2.14 µM (inactive) | 0.698 µM (active) | 0.23 µM (active) | 0.893 µM (active) | 0.76 µM (active) | 0.811 µM (active) | 0.347 µM (active) | 1.96 µM (inactive) | 0.942 µM (active) | 0.423 µM (active) | 1.39 µM (inactive) | 0.984 µM (active) | 1.22 µM (inactive) | 1.64 µM (inactive) | 3.13 µM (inactive)
